Results on 26 compounds are retold here after PubChem BioAssay AID330 (DTP/NCI, 2004).

Values joined by “and” are separate entries in the source; they are usually repeats but may differ in a detail not shown here. Equal values may be shown once. Toxic doses and inconclusive results are not listed.

In the assay the test system is P388 leukemia ip, CD2F1 mice, survival T/C. The assay can be described thus: NCI In Vivo Anticancer Drug Screen. Data for tumor model P388 Leukemia (intraperitoneal) in CD2F1 (CDF1) mice. The following applies: endpoint: median survival time, higher = longer survival. An outline of the steps:
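Mice carrying the transplanted tumor received test compound or vehicle. Survival was recorded in each group, and the value is the treated-group measurement divided by that of the vehicle-treated control group.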

Setting [1] is: dose: 50.0 mg/kg/injection, schedule: Q01DX005 (ip), vehicle: saline with Tween-80.
Setting [2] is: dose: 100.0 mg/kg/injection, schedule: Q01DX005 (ip), vehicle: saline with Tween-80.
Where [3] appears, read: dose: 50.0 mg/kg/injection, schedule: Q01DX005 (ip), vehicle: saline.
The mark [4] stands for this setting: dose: 100.0 mg/kg/injection, schedule: Q01DX005 (ip), vehicle: saline.
[5] abbreviates: dose: 200.0 mg/kg/injection, schedule: Q01DX005 (ip), vehicle: saline.
Where [6] appears, read: dose: 100.0 mg/kg/injection, schedule: Q01DX001 (ip), vehicle: saline with Tween-80.
The mark [7] stands for this setting: dose: 60.0 mg/kg/injection, schedule: Q01DX005 (ip), vehicle: saline.
Where [8] appears, read: dose: 120.0 mg/kg/injection, schedule: Q01DX005 (ip), vehicle: saline.
The mark [9] stands for this setting: dose: 240.0 mg/kg/injection, schedule: Q01DX005 (ip), vehicle: saline.
The mark [10] stands for this setting: dose: 50.0 mg/kg/injection, schedule: Q01DX009 (ip), vehicle: saline.
[11] abbreviates: dose: 100.0 mg/kg/injection, schedule: Q01DX009 (ip), vehicle: saline.
[12] abbreviates: dose: 200.0 mg/kg/injection, schedule: Q01DX009 (ip), vehicle: saline.
The mark [13] stands for this setting: dose: 50.0 mg/kg/injection, schedule: Q01DX005 (ip), vehicle: Klucel (hydroxypropylcellulose) (HPC).
[14] abbreviates: dose: 100.0 mg/kg/injection, schedule: Q01DX005 (ip), vehicle: Klucel (hydroxypropylcellulose) (HPC).
Where [15] appears, read: dose: 200.0 mg/kg/injection, schedule: Q01DX005 (ip), vehicle: Klucel (hydroxypropylcellulose) (HPC).
[16] abbreviates: dose: 60.0 mg/kg/injection, schedule: Q01DX005 (ip), vehicle: saline with Tween-80.
[17] abbreviates: dose: 120.0 mg/kg/injection, schedule: Q01DX005 (ip), vehicle: saline with Tween-80.
Where [18] appears, read: dose: 240.0 mg/kg/injection, schedule: Q01DX005 (ip), vehicle: saline with Tween-80.
Where [19] appears, read: dose: 100.0 mg/kg/injection, schedule: Q04DX003 (ip), vehicle: saline with Tween-80.
The mark [20] stands for this setting: dose: 200.0 mg/kg/injection, schedule: Q04DX003 (ip), vehicle: saline with Tween-80.

Consider `COC1=C(O)C(=O)N(C)C(=O)C1`, for which the T/C runs as follows: (dose: 0.93 mg/kg/injection, schedule: Q01DX005 (ip), vehicle: saline) 104 % of control; (dose: 1.87 mg/kg/injection, schedule: Q01DX005 (ip), vehicle: saline) 101 % of control; (dose: 3.75 mg/kg/injection, schedule: Q01DX005 (ip), vehicle: Klucel (hydroxypropylcellulose) (HPC)) 110 % of control; (dose: 3.75 mg/kg/injection, schedule: Q01DX005 (ip), vehicle: saline) 104 % of control.
For `C=CC1CN2CCC1CC2C(O)c1ccnc2ccc(OC)cc12` (stereo not given), the T/C is, setting by setting: under setting [1], 97 % of control; (dose: 50.0 mg/kg/injection, schedule: Q04DX003 (ip), vehicle: alcohol) 115 % of control; under setting [2], 104 % of control; (dose: 100.0 mg/kg/injection, schedule: Q04DX003 (ip), vehicle: alcohol) 105 % of control; (dose: 200.0 mg/kg/injection, schedule: Q04DX003 (ip), vehicle: alcohol) 115 % of control.
Take `COC(=O)C(=O)C(C(=O)c1ccncc1)c1nc2n(c1O)C(=N)N=N2` (stereo not given): the T/C was 97 % of control under setting [3], 97 % of control under setting [4] and 100 % of control under setting [5].
Consider `CC1=NNB(O)c2c1sc(Br)c2Br`, for which the T/C is 100 % of control under setting [6] and 95 % of control (dose: 200.0 mg/kg/injection, schedule: Q01DX001 (ip), vehicle: saline with Tween-80).
On to `CC1(C)CC(OS(=O)(=O)c2ccc(Br)cc2)CC(C)(C)N1O`, for which the T/C by setting is: (dose: 50.0 mg/kg/injection, schedule: Q01DX009 (ip), vehicle: Klucel (hydroxypropylcellulose) (HPC)) 93 % of control; (dose: 100.0 mg/kg/injection, schedule: Q01DX009 (ip), vehicle: Klucel (hydroxypropylcellulose) (HPC)) 99 % of control; (dose: 200.0 mg/kg/injection, schedule: Q01DX009 (ip), vehicle: Klucel (hydroxypropylcellulose) (HPC)) 97 % of control.
Turning to `c1ccc(-n2cncn2)cc1`, the T/C under setting [7] was 95 % of control, the T/C under setting [8] was 100 % of control and the T/C under setting [9] is 101 % of control.
Take `CN(C)C1=NN(Cc2ccccc2)C(=O)C1`: the T/C by setting is: under setting [10], 105 % of control; under setting [11], 103 % of control; under setting [12], 96 % of control.
In the case of `OCc1c(CO)c(-c2ccc(Cl)cc2)n2c1CCC2`, the T/C runs as follows: (dose: 12.5 mg/kg/injection, schedule: Q01DX005 (ip), vehicle: distilled water + Tween-80) 120 % of control; (dose: 25.0 mg/kg/injection, schedule: Q01DX005 (ip), vehicle: distilled water + Tween-80) 111 % of control and 120 % of control; (dose: 50.0 mg/kg/injection, schedule: Q01DX005 (ip), vehicle: distilled water + Tween-80) 112 % of control; (dose: 100.0 mg/kg/injection, schedule: Q01DX005 (ip), vehicle: distilled water + Tween-80) 156 % of control; (dose: 200.0 mg/kg/injection, schedule: Q01DX005 (ip), vehicle: distilled water + Tween-80) 186 % of control; (dose: 400.0 mg/kg/injection, schedule: Q01DX005 (ip), vehicle: distilled water + Tween-80) 157 % of control.
On to `NC(=O)NC1CC1c1ccc(Cl)c(Cl)c1` (stereo not given), for which the T/C under setting [13] is 103 % of control, the T/C under setting [14] was 99 % of control and the T/C under setting [15] was 114 % of control.
For `O=C1CCSCC1`, the T/C runs as follows: (dose: 50.0 mg/kg/injection, schedule: Q01DX009 (ip), vehicle: saline with Tween-80) 99 % of control; (dose: 100.0 mg/kg/injection, schedule: Q01DX009 (ip), vehicle: saline with Tween-80) 113 % of control; (dose: 200.0 mg/kg/injection, schedule: Q01DX009 (ip), vehicle: saline with Tween-80) 100 % of control; (dose: 400.0 mg/kg/injection, schedule: Q01DX009 (ip), vehicle: saline with Tween-80) 98 % of control.
For `CC(C)=CC(C(=O)C1CC1)C(CC(=O)C1CC1)C(C)C` (stereo not given), the T/C is, setting by setting: (dose: 25.0 mg/kg/injection, schedule: Q01DX005 (ip), vehicle: saline with Tween-80) 99 % of control; under setting [1], 92 % of control; under setting [2], 92 % of control.
`CCOP(=O)(CS(=O)CCC1(C)NC(=O)NC1=O)OCC` (stereo not given): the T/C is 100 % of control under setting [3], 101 % of control under setting [4] and 103 % of control under setting [5].
With `CN(C)c1ccc(C(=C2C=CC(=[N+](C)C)C=C2)c2cc(S(=O)(=O)O)cc3cc(S(=O)(=O)O)ccc23)cc1`, the T/C is 103 % of control under setting [1]; 107 % of control under setting [2]; 100 % of control (dose: 200.0 mg/kg/injection, schedule: Q01DX005 (ip), vehicle: saline with Tween-80).
Take `C1CCC(NC2CCCCC2)CC1`: the T/C was 103 % of control (dose: 12.5 mg/kg/injection, schedule: Q01DX005 (ip), vehicle: saline); 100 % of control (dose: 23.7 mg/kg/injection, schedule: Q01DX005 (ip), vehicle: saline); 102 % of control (dose: 25.0 mg/kg/injection, schedule: Q01DX005 (ip), vehicle: saline); 100 % of control (dose: 35.6 mg/kg/injection, schedule: Q01DX005 (ip), vehicle: saline); 100 % of control under setting [3]; 100 % of control (dose: 53.3 mg/kg/injection, schedule: Q01DX005 (ip), vehicle: saline). The T/C (dose: 80.0 mg/kg/injection, schedule: Q01DX005 (ip), vehicle: saline) is 100 % of control; the T/C under setting [4] was 93 % of control; the T/C under setting [5] is 102 % of control.
In the case of `NC(CO)(CO)CO`, the T/C (dose: 1600.0 mg/kg/injection, schedule: Q01DX007 (ip), vehicle: saline) was 121 % of control.
In the case of `COc1cc(OC)c(C2CC(C)(O)Oc3cc4c(cc32)OCO4)c(OC)c1` (stereo not given), the T/C runs as follows: under setting [16], 91 % of control; under setting [17], 86 % of control; under setting [18], 88 % of control.
Take `COc1cc([C@@H]2c3cc4c(cc3C[C@@H]3COC(=O)C32)OCO4)cc(OC)c1O` (stereo not given in full): the T/C is, setting by setting: under setting [16], 100 % of control and 120 % of control; under setting [18], 107 % of control.
With `CCOP(=O)(OCC)C1OCCCO1`, the T/C by setting is: under setting [10], 102 % of control; under setting [11], 98 % of control; under setting [12], 106 % of control.
As for `CS(=O)(=O)CC(=N\O)/C(CS(C)(=O)=O)=N/O`, the T/C under setting [7] was 103 % of control, the T/C under setting [8] was 94 % of control and the T/C under setting [9] was 103 % of control.
As to `COC1=C(Br)C(=O)N/C1=C(\OC)c1ccccc1`, the T/C under setting [16] is 89 % of control, the T/C under setting [17] was 98 % of control and the T/C under setting [18] was 89 % of control.
As to `Oc1ccc(Cc2ccc(O)cc2)cc1`, the T/C under setting [19] was 102 % of control; the T/C under setting [20] was 101 % of control; the T/C (dose: 400.0 mg/kg/injection, schedule: Q04DX003 (ip), vehicle: saline with Tween-80) was 115 % of control.
Turning to `N#CC(/C=C/c1ccccc1)Nc1ccccc1N` (stereo not given), the T/C runs as follows: under setting [6], 100 % of control; (dose: 400.0 mg/kg/injection, schedule: Q01DX001 (ip), vehicle: saline with Tween-80) 100 % of control.
For the compound `C[N+](C)=c1ccc2nc3c(cc(Nc4ccccc4)c4ccccc43)oc-2c1`, the T/C is, setting by setting: (dose: 60.0 mg/kg/injection, schedule: Q01DX005 (ip), vehicle: Klucel (hydroxypropylcellulose) (HPC)) 88 % of control; (dose: 120.0 mg/kg/injection, schedule: Q01DX005 (ip), vehicle: Klucel (hydroxypropylcellulose) (HPC)) 91 % of control; (dose: 240.0 mg/kg/injection, schedule: Q01DX005 (ip), vehicle: Klucel (hydroxypropylcellulose) (HPC)) 103 % of control.
Take `O=c1c2sc3ccccc3c2ncn1/N=C/c1cccc([N+](=O)[O-])c1`: the T/C by setting is: under setting [13], 99 % of control; under setting [14], 92 % of control; under setting [15], 91 % of control.
Consider `COc1ccc2c(c1OC)C(O)(Cc1ccccc1)OC2C1c2c(cc3c(c2OC)OCO3)CCN1C` (stereo not given), for which the T/C runs as follows: under setting [13], 106 % of control; under setting [14], 104 % of control; under setting [15], 95 % of control.
`N=C(N)SCCC(=O)Nc1ccccc1`: the T/C under setting [19] is 106 % of control and the T/C under setting [20] was 106 % of control.
